According to patent publication US20240182443A1, “POLYMORPHIC FORMS OF COMPOUND AND PREPARATION METHOD THEREFOR AND APPLICATION THEREOF” (SHANGHAI MEIYUE BIOTECH DEVELOPMENT CO., LTD., priority 2021, published 2024):
Converted amounts (≈) assume the structure as drawn.

Experiments:
Assay type in all cases: physicochemical
[1] = Test for effects of humidity on crystalline forms III and VII at 40° C. (XRPD); conditions: for physical stability (XRPD) / crystalline form change (XRPD): 40° C., 23 h; for physical stability (XRPD): 70% RH; for crystalline form change (XRPD): 80% and 90% RH; for physical stability: at 70% RH or less
Protocol: Therefore, they were further studied at 40° C. for the effects of humidity.

[2] = Solid stability and chemical stability of crystalline forms III and VII (60° C./sealed and 40° C./75% RH/open, 7 days; HPLC, XRPD); conditions: for chemical stability / crystalline form change (XRPD): 40° C./75% RH (open); for chemical stability / crystalline form change (XRPD) / physical and chemical stability / Purity-7 days (Area %): 7 days; for physical and chemical stability: 60° C. (sealed); for Purity-7 days (Area %) / Initial purity (Area %): HPLC; for Initial purity (Area %): before stability storage
Protocol: The crystalline forms III and VII were subjected to solid stability and chemical stability experiments under conditions of 60° C./sealed and 40° C./75% RH/open for 7 days. […] The amount of the crystalline form IV that formed in the crystalline form III is slightly greater than that in the crystalline form VII.

[3] = HPLC purity of the solubility test samples (stability in biological media); conditions: for HPLC (24 h): calculated as 100% HPLC purity before; for HPLC purity change: all three biological media, calculated as 100% HPLC purity before standing in the media
Protocol: (§1) The solubility of both the crystalline forms III and VII increased with decreasing pH value of the biological medium. Both the crystalline forms were most soluble in SGF (0.323 mg/mL VS 0.183 mg/mL @ 0.5 h) and least soluble in FaSSIF (0.034 mg/mL VS 0.025 mg/mL @ 0.5 h). […] Both the crystalline forms degraded to a certain extent as the stirring continued in the solubility test. The crystalline forms of the crystalline forms III and VII in all the three biological media changed. […] Thus, the compound is unstable in biological media (Table 13).

[4] = DVS (dynamic vapor sorption) hygroscopicity test with XRPD of the post-DVS sample; conditions: for hygroscopicity (DVS): within a range of 0-80% RH, 25° C.
Protocol: DVS tests were carried out using a dynamic vapor sorption instrument (Vsorp-Enhanced, proUmid) under the following conditions: adding a sufficient amount of a sample to the Vsorp-Enhanced instrument for simulation of dynamic vapor sorption, recording changes in weight at 25° C. with different humidity equilibrium levels, and subjecting the post-DVS test sample to an XRPD test.
The crystalline form III was characterized by XRPD, PLM, DSC, TGA and DVS. […] (FIG. 8). […] (FIG. 8). The DVS results (FIG. 9) show slight hygroscopicity at only 0.22% within a range of 0-80% RH.
The crystalline form VII was characterized by XRPD, PLM, DSC, TGA and DVS.

[5] = Solubility test in biological media (SGF, FaSSIF, FeSSIF) with XRPD of samples after the test; conditions: for solubility at 0.5 h / solubility at 24 h / solubility at 2 h: thermodynamic from solid
Protocol: as §1

[6] = Competitive slurrying experiment of crystalline forms I, III, VII and IX in butanone and isopropyl acetate; conditions: VII and IX slurried with butanone and isopropyl acetate
Protocol: A competitive slurrying experiment was carried out by slurrying a certain amount of each of the crystalline forms I, III, VII and IX with butanone and isopropyl acetate.

Row | SMILES | physical stability (XRPD) [1] | crystalline form change (XRPD) [1] | physical stability [1] | chemical stability [2] | crystalline form change (XRPD) [2] | physical and chemical stability [2] | Purity-7 days (Area %) ([2]; 40° C./75% RH, open) | Purity-7 days (Area %) ([2]; 60° C., sealed) | Initial purity (Area %) [2] [Area %] | HPLC (24 h) ([3]; FaSSIF) [%] | HPLC (24 h) ([3]; FeSSIF) [%] | HPLC (24 h) ([3]; SGF) [%] | HPLC purity change [3] | crystalline form after the DVS test (XRPD) [4] | hygroscopicity (DVS) [4] [%] | crystalline form after solubility test (XRPD) ([5]; FaSSIF) | pH ([5]; FaSSIF, 0.5 h) | Solubility ([5]; FaSSIF, 2 h) [µg/mL] | pH ([5]; FaSSIF, 2 h) | pH ([5]; FaSSIF, 24 h) | also measured
1 | COc1cc2nn([C@H]3CC[C@](C)(O)CC3)cc2cc1NC(=O)c1cccc(C)[n+]1[O-] [crystalline form III, 2-((2-(trans-4-hydroxy-cis-4-methylcyclohexyl)-6-methoxy-2H-indazol-5-yl)carbamoyl)-6-methylpyridine 1-oxide] | physically stable | a small amount of hydrate crystalline form IV formed | physically stable | chemically stable | a small amount of hydrate crystalline form IV formed | physically and chemically stable | 99.96 | 99.97 | 99.96 | 97.99 | 96.89 | 99.69 | decreased to a certain extent | transformed into a crystal mixture of the crystalline forms III and IV | 0.22 | transformed into the crystalline form IV | 6.47 | 9 (≈ 21.9 µM) | 6.47 | 6.45 | solubility at 0.5 h ([5]; FaSSIF, 0.5 h): 34 µg/mL (≈ 82.8 µM); solubility at 24 h ([5]; FaSSIF, 24 h): 7 µg/mL (≈ 17.1 µM); crystalline form after solubility test (XRPD) ([5]; FeSSIF): a crystal mixture of the crystalline forms IV and XIII; Solubility ([5]; FeSSIF, 0.5 h): 105 µg/mL (≈ 256 µM); pH ([5]; FeSSIF, 0.5 h): 4.88; Solubility ([5]; FeSSIF, 2 h): 67 µg/mL (≈ 163 µM); pH ([5]; FeSSIF, 2 h): 4.92; Solubility ([5]; FeSSIF, 24 h): 58 µg/mL (≈ 141 µM); pH ([5]; FeSSIF, 24 h): 4.94; crystalline form after solubility test (XRPD) ([5]; SGF): transformed into the crystalline form IV; pH ([5]; SGF, 0.5 h): 1.09; Solubility ([5]; SGF, 2 h): 289 µg/mL (≈ 704 µM); pH ([5]; SGF, 2 h): 1.07; Solubility ([5]; SGF, 24 h): 89 µg/mL (≈ 217 µM); pH ([5]; SGF, 24 h): 1.24; solubility at 0.5 h ([5]; SGF, simulated gastric fluid, 0.5 h): 323 µg/mL (≈ 787 µM); solubility at 0.5 h relative to crystalline form VII ([5]; all three biological media, 0.5 h): 1.5 times
2 | COc1cc2nn([C@H]3CC[C@](C)(O)CC3)cc2cc1NC(=O)c1cccc(C)[n+]1[O-] [crystalline form VII, 2-((2-(trans-4-hydroxy-cis-4-methylcyclohexyl)-6-methoxy-2H-indazol-5-yl)carbamoyl)-6-methylpyridine 1-oxide] | physically stable | a small amount of hydrate crystalline form IV formed | physically stable | chemically stable | a small amount of hydrate crystalline form IV formed | physically and chemically stable | 99.93 | 99.94 | 99.92 | 93.49 | 93.13 | 99.46 | decreased to a certain extent | remained the same as that before the DVS test | 0.29 | transformed into the crystalline form IV | 6.42 | 29 (≈ 70.7 µM) | 6.44 | 6.48 | crystalline form resulting from competitive slurrying [6]: can be produced from various slurrying processes; Solubility ([5]; FaSSIF, 0.5 h): 25 µg/mL (≈ 60.9 µM); Solubility ([5]; FaSSIF, 24 h): 7 µg/mL (≈ 17.1 µM); crystalline form after solubility test (XRPD) ([5]; FeSSIF): transformed into the crystalline form IV; pH ([5]; FeSSIF, 0.5 h): 4.86; pH ([5]; FeSSIF, 2 h): 4.90; pH ([5]; FeSSIF, 24 h): 4.91; solubility at 0.5 h ([5]; FeSSIF, 0.5 h): 68 µg/mL (≈ 166 µM); solubility at 2 h ([5]; FeSSIF, 2 h): 65 µg/mL (≈ 158 µM); solubility at 24 h ([5]; FeSSIF, 24 h): 65 µg/mL (≈ 158 µM); crystalline form after solubility test (XRPD) ([5]; SGF): a crystal mixture of the crystalline forms IV and XV; Solubility ([5]; SGF, 0.5 h): 183 µg/mL (≈ 446 µM); pH ([5]; SGF, 0.5 h): 1.23; pH ([5]; SGF, 2 h): 1.16; pH ([5]; SGF, 24 h): 1.26; solubility at 2 h ([5]; SGF, simulated gastric fluid, 2 h): 147 µg/mL (≈ 358 µM); solubility at 24 h ([5]; SGF, simulated gastric fluid, 24 h): 92 µg/mL (≈ 224 µM)
